Laboratory results published in publication PMC9939304 (Acta Pharmaceutica Sinica. B, 2022).
Where two headings read alike, the source gives them in different places. Marks after values point to notes of the source that are not given here.

Tests used:
OCT2 protein [1] = assay: OCT2 protein expression in Caco-2 cells; format: cell-based, human; conditions: 48 h; for Expressions of OCT2 protein, 5 bile salts tested: CDCA 100, CA 100, DCA 50, HDCA 100, GCA 100 μmol/L; for Expressions of OCT2 protein by FXR agonists: CDCA 100, bilirubin 50, GW4064 1 μmol/L
Mate1 = assay: Renal Mate1 protein expression in treated rats; format: in vivo, rat; conditions: 14 days: CDCA 180 mg/kg qd oral
Oct2 protein [2] = assay: Oct2 protein expression in primarily cultured rat hepatocytes; format: cell-based; conditions: for Expressions of Oct2 protein: CDCA, bilirubin or GW4064
OCT2 protein [3] = assay: OCT2 protein expression in HK-2 cells; format: cell-based, human; conditions: 48 h; for Expressions of OCT2 protein by FXR agonists: CDCA 100, bilirubin 50, GW4064 1 μmol/L
Oct1 protein [4] = assay: Oct1 protein expression in primarily cultured rat hepatocytes; format: cell-based; conditions: for Expressions of Oct1 protein: CDCA, bilirubin or GW4064
OCT1 protein [5] = assay: OCT1 protein expression in HepG2 cells; format: cell-based, human; conditions: for Concentration-dependent effect on expressions of OCT1 protein: 48 h, CDCA 25, 50, 100 μmol/L, bilirubin 1, 10, 50 μmol/L
FXR [6] = target: T1, FXR (Homo sapiens, UniProt Q96RI1); format: cell-based; conditions: HK-2 cells
T1 sequence (Q96RI1 1-486): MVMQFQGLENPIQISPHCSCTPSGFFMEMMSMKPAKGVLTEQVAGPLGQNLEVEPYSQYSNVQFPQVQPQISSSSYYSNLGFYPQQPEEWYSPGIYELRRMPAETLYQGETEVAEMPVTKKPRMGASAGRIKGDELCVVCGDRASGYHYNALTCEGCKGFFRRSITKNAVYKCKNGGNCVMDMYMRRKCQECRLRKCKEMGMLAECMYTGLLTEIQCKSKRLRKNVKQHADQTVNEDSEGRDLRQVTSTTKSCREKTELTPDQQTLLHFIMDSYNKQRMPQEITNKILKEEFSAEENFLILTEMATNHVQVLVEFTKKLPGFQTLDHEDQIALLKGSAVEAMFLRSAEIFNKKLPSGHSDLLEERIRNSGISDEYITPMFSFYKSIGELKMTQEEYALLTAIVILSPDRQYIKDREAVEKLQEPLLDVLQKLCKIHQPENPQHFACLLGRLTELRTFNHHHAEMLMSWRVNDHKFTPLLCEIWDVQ

FXR protein = FXR protein expression in HK-2 cells; format: cell-based, human
Oct2/3 [7] = conditions: Sham rats
Oct2/3 [8] = target: T2, Oct2/3 (Rattus norvegicus, UniProt Q9R0W2); conditions: corticosterone 5 mg/kg ip, normal rats; iv metformin 10 mg/kg
T2 sequence (Q9R0W2 1-555): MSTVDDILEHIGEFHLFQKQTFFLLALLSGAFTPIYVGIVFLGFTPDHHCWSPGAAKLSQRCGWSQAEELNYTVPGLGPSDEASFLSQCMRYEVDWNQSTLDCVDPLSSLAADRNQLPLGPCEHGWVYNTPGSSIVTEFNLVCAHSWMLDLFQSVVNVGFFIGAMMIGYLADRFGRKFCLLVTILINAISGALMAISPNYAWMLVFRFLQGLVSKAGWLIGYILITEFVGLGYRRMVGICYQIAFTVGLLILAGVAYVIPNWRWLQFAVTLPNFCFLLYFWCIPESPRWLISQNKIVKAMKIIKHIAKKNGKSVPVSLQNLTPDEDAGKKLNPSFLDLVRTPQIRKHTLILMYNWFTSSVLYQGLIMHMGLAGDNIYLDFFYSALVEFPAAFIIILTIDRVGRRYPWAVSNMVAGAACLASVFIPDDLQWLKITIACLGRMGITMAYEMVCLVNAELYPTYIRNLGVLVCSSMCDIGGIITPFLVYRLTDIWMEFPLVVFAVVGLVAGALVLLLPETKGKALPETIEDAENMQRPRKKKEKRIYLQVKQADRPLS

Oct1 = Oct1 (Rattus norvegicus, UniProt Q63089); assay: in vitro; conditions: probe metformin (100 μmol/L)
Oct3 = target: T3, Oct3 (Rattus norvegicus, UniProt O88446); conditions: estradiol 1 μmol/L with metformin 50 μg/mL; Sham rats
T3 sequence (O88446 1-551): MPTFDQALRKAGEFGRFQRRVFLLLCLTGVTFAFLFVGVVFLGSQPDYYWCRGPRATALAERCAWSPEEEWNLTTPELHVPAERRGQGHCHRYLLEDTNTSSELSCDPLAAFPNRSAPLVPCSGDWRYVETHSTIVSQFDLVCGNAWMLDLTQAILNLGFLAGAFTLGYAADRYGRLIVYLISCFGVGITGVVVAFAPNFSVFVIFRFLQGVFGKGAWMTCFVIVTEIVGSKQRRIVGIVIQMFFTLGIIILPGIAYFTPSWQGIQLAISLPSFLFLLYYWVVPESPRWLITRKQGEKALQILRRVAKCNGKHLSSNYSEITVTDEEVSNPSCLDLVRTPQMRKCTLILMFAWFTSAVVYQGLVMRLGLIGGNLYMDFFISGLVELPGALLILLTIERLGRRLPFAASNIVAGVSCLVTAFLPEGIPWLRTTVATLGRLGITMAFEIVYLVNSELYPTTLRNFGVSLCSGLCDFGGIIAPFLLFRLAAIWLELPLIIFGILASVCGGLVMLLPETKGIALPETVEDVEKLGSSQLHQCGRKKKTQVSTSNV

rat kidney slices = assay: Uptake of metformin by precision-cut kidney slices; format: in vitro ADME; conditions: metformin 50 μg/mL, 15 min, 37 °C; slices from BDL rats
[9] = oral metformin 40 mg/kg
FXR [10] = target: T1, FXR; format: cell-based; conditions: HepG2 cell
Oct2 = format: in vivo, rat; conditions: stigmasterol 200 mg/kg qd plus CDCA 180 mg/kg qd oral, 14 days
[11] = format: in vivo, rat; conditions: stigmasterol 200 mg/kg qd plus CDCA 180 mg/kg qd oral, 14 days
[12] = endogenous thiamine; BDL rats
[13] = thiamine 20 μg/mL perfusion
[14] = CON rats of CDCA study (Table S5)

Sequence of Oct1 (Q63089 whole entry): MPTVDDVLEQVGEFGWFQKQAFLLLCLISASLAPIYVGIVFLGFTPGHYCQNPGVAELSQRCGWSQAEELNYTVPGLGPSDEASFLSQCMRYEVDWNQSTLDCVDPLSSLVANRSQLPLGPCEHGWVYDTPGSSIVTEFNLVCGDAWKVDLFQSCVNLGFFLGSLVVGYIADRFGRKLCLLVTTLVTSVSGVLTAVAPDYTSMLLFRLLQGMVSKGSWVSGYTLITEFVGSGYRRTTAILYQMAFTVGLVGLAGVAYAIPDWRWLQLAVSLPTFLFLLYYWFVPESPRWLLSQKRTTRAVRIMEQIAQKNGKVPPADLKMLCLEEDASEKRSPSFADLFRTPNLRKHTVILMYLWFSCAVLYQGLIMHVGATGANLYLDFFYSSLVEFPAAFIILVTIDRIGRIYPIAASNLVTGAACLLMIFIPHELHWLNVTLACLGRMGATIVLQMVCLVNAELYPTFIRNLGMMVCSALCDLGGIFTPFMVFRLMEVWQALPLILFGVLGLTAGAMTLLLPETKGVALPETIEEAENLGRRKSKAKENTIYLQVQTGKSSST

C[C@H](CCC(=O)O)[C@H]1CC[C@H]2[C@@H]3[C@H](O)C[C@@H]4C[C@H](O)CC[C@]4(C)[C@H]3C[C@H](O)[C@]12C [CA, Cholic acid]
Expressions of OCT2 protein, 5 bile salts tested (OCT2 protein [1]): only CDCA remarkably induces

C[C@H](CCC(=O)O)[C@H]1CC[C@H]2[C@@H]3[C@H](O)C[C@@H]4C[C@H](O)CC[C@]4(C)[C@H]3CC[C@]12C [CDCA, chenodeoxycholic acid]
Expressions of renal Mate1 protein in treated rats (Mate1): unaltered | Expressions of Oct2 protein (Oct2 protein [2]): upregulate expressions of Oct2 protein | Expressions of OCT2 protein by FXR agonists (OCT2 protein [3]): increase expressions of OCT2 protein | Concentration-dependent effect on expressions of OCT2 (OCT2 protein [1]; CDCA 25, 50, 100 μmol/L, bilirubin 10, 25, 50 μmol/L): concentration-dependently increase | Expressions of OCT2 protein, 5 bile salts tested (OCT2 protein [1]): remarkably induces | Expressions of OCT2 protein by FXR agonists (OCT2 protein [1]): induce expressions of OCT2 protein | Expressions of Oct1 protein (Oct1 protein [4]): downregulate expressions of Oct1 protein | Concentration-dependent effect on expressions of OCT1 protein (OCT1 protein [5]): concentration-dependently downregulate

C[C@H](CCC(=O)O)[C@H]1CC[C@H]2[C@@H]3CC[C@@H]4C[C@H](O)CC[C@]4(C)[C@H]3C[C@H](O)[C@]12C [DCA, Eeoxycholic acid]
Expressions of OCT2 protein, 5 bile salts tested (OCT2 protein [1]): only CDCA remarkably induces

C[C@H](CCC(=O)NCC(=O)O)[C@H]1CC[C@H]2[C@@H]3[C@H](O)C[C@@H]4C[C@H](O)CC[C@]4(C)[C@H]3C[C@H](O)[C@]12C [GCA, Glycocholic acid]
Expressions of OCT2 protein, 5 bile salts tested (OCT2 protein [1]): only CDCA remarkably induces

CC(C)c1onc(-c2c(Cl)cccc2Cl)c1COc1ccc(/C=C/c2cccc(C(=O)O)c2)c(Cl)c1 [GW4064]
Expressions of Oct2 protein (Oct2 protein [2]): upregulate expressions of Oct2 protein | Expressions of OCT2 protein by FXR agonists (OCT2 protein [3]): increase expressions of OCT2 protein | Expressions of OCT2 protein by FXR agonists (OCT2 protein [1]): induce expressions of OCT2 protein | Expressions of Oct1 protein (Oct1 protein [4]): downregulate expressions of Oct1 protein | Expressions of OCT1 protein (OCT1 protein [5]; GW4064): also downregulates

C[C@H](CCC(=O)O)[C@H]1CC[C@H]2[C@@H]3C[C@H](O)[C@@H]4C[C@H](O)CC[C@]4(C)[C@H]3CC[C@]12C [HDCA, Hyodeoxycholic acid]
Expressions of OCT2 protein, 5 bile salts tested (OCT2 protein [1]): only CDCA remarkably induces

C[C@H](CCC(=O)NCC(=O)O)[C@H]1CC[C@H]2[C@@H]3[C@@H](O)[C@@H](O)[C@@H]4C[C@H](O)CC[C@]4(C)[C@H]3CC[C@]12C [MCA, glycine-β-muricholic acid]
Expressions of FGF19 mRNA (FXR [6]; MCA): slight inhibits | Expressions of SHP mRNA (FXR [6]; MCA): significantly downregulates | Effect on upregulation of Oct2 protein by CDCA, bilirubin and GW4064 (Oct2 protein [2]; MCA): remarkably attenuated | Effect on increase of OCT2 protein by CDCA, bilirubin and GW4064 (OCT2 protein [3]; MCA 100 μmol/L): reversed | Effect on induction of OCT2 protein by bilirubin, CDCA and GW4064 (OCT2 protein [1]; MCA 100 μmol/L): remarkably attenuated | Effect on downregulation of Oct1 protein by CDCA, bilirubin and GW4064 (Oct1 protein [4]; MCA): remarkably attenuated | Effect on decreases in OCT1 by CDCA, bilirubin and GW4064 (OCT1 protein [5]; MCA): remarkably reversed

C=CC1=C(C)/C(=C/c2[nH]c(Cc3[nH]c(/C=C4\NC(=O)C(C)=C4C=C)c(C)c3CCC(=O)O)c(CCC(=O)O)c2C)NC1=O [bilirubin]
Expressions of SHP and FGF19 mRNA (FXR [6]): significantly upregulate | Expressions of Oct2 protein (Oct2 protein [2]): upregulate expressions of Oct2 protein | Expressions of OCT2 protein by FXR agonists (OCT2 protein [3]): increase expressions of OCT2 protein | Expressions of Oct1 protein (Oct1 protein [4]): downregulate expressions of Oct1 protein | Expressions of FXR protein (FXR protein): can induce | Concentration-dependent effect on expressions of OCT1 protein (OCT1 protein [5]): concentration-dependently downregulate

C[C@]12C[C@H](O)[C@H]3[C@@H](CCC4=CC(=O)CC[C@@]43C)[C@@H]1CC[C@@H]2C(=O)CO [corticosterone]
Intestinal absorption (Peff) of metformin with inhibitor (Oct2/3 [7]; corticosterone 4 μmol/L with metformin 50 μg/mL): 60 % of control rats | Effect on Peff values of thiamine (Oct2/3 [7]; corticosterone 4 μmol/L with thiamine 20 μg/mL): significantly decrease | In vivo hepatic uptake clearance of metformin with corticosterone (Oct2/3 [8]): 50 % of CON rats

NCCc1ccc(O)c(O)c1 [dopamine]
inhibition at 1.5 min, 20 μmol/L (Oct1; primary hepatocytes from BDL rats): 25.2% | inhibition at 1.5 min, 20 μmol/L (Oct1; primary hepatocytes from Sham rats): 58.7%

C[C@]12CC[C@@H]3c4ccc(O)cc4CC[C@H]3[C@@H]1CC[C@@H]2O [estradiol]
Effect on Peff of metformin (Oct3): does not affect

CN(C)C(=N)N=C(N)N [metformin]
Uptake of metformin in renal slice, BDL vs Sham (rat kidney slices): significantly increases | V1 (BDL rat, same value as Sham): 102.99 mL | V1 (Sham rat, 250 g, estimated from original data): 102.99 ^j mL | AUC ([9]; CDCA-treated rats (Table S5)): 906.85 ± 52.16 µg·min/mL | Cmax ([9]; CDCA-treated rats (Table S5)): 4360 ± 380 ng/mL | AUC [9, 14]: 707.20 ± 30.01 µg·min/mL | Cmax [9, 14]: 3190 ± 120 ng/mL

CC[C@H](/C=C/[C@@H](C)[C@H]1CC[C@H]2[C@@H]3CC=C4C[C@@H](O)CC[C@]4(C)[C@H]3CC[C@]12C)C(C)C [stigmasterol]
Effect on upregulation of SHP and FGF19 mRNA by CDCA (FXR [10]; co-administration of stigmasterol with CDCA): significantly reversed | mRNA expressions of SHP and FGF19, stigmasterol alone (FXR [10]; stigmasterol 100 μmol/L): little affects | Effect on the increased expressions of intestinal Oct2 protein by CDCA (Oct2): attenuates | Effect on CDCA-induced increase in levels of blood thiamine [11]: attenuated

Cc1ncc(C[n+]2csc(CCO)c2C)c(N)n1 [thiamine]
Urinary excreted amount of thiamine during 6 h, BDL relative to Sham [12]: 187 % of Sham rats | Peff values of thiamine in BDL rats vs Sham [13]: significantly decrease
